# Experimental data taken from patent US5976866A, “Screen for inhibitors of fungal IPC synthase” (Eli Lilly and Company, priority 1997, dated 1999).
# Read-outs that look alike come from different tables or passages of the source.
# Columns and labels:
# Format in all cases: cell-based, S. cerevisiae
# strains A and B = test: Whole-cell comparison of strains A and B (and wild type) with antifungal compounds that do not target IPC synthase; conditions: strains A and B compared
# Protocol: (§1) Strains A and B, and wild-type strain YPH499 (transformed with YEp352) were tested for sensitivity to a variety of known antifungal compounds. Cells were grown in YEPD or SC-URA (2% glucose) liquid culture and dispensed into the wells of a 96-well microtiter dish containing decreasing amounts of antifungal compounds, as in Example 2.
# [1] = tested on: YPH499 (transformed by YEp352); test: Sensitivity to antifungal compounds (MIC), wild-type YPH499 (YEp352); conditions: for MIC: Saccharomyces cerevisiae, read-out: Minimum Inhibitory Concentration
# Protocol: as §1
# (§2) ^a Cells were grown in SCURA (2% glucose)
# ^b YPH499 is transformed by YEp352.
# Strain B = test: Sensitivity to antifungal compounds (MIC), Strain B; conditions: for MIC: Saccharomyces cerevisiae, read-out: Minimum Inhibitory Concentration
# Protocol: as §1, §2
# Strain A = test: Sensitivity to antifungal compounds (MIC), Strain A; conditions: for MIC: Saccharomyces cerevisiae, read-out: Minimum Inhibitory Concentration
# Protocol: as §1, §2
SMILES,effect on strains A and B (in words) (strains A and B),MIC ([1]; SC-URA (2% glucose)),MIC (Strain B; SC-URA (2% glucose)),MIC (Strain A; SC-URA (2% glucose)),also measured
C[C@@H]1[C@H](O)[C@@H](C)/C=C/C=C/C=C/C=C/C=C/C=C/C=C/[C@H](O[C@@H]2O[C@H](C)[C@@H](O)[C@H](N)[C@@H]2O)C[C@@H]2O[C@](O)(C[C@@H](O)C[C@@H](O)[C@H](O)CC[C@@H](O)C[C@@H](O)CC(=O)O[C@H]1C)C[C@H](O)[C@H]2C(=O)O [Amphotericin B],equally affected,2500 µg/mL,2500 µg/mL,2500 µg/mL,
C[C@@H]1C[C@@H]([C@H](O)CC2CC(=O)NC(=O)C2)C(=O)[C@@H](C)C1 [Cycloheximide],equally affected,,,,MIC [1]: 300 µg/mL; MIC (Strain B): 600 µg/mL; MIC (Strain A): 300 µg/mL
OC(Cn1cncn1)(Cn1cncn1)c1ccc(F)cc1F [Fluconazole],equally affected,> 80000 µg/mL,> 80000 µg/mL,> 80000 µg/mL,
CCC(C)n1ncn(-c2ccc(N3CCN(c4ccc(OCC5COC(Cn6cncn6)(c6ccc(Cl)cc6Cl)O5)cc4)CC3)cc2)c1=O (centres unmarked) [Itraconazole],,1200 µg/mL,1200 µg/mL,1200 µg/mL,
C[C@@H]1[C@H](O)[C@@H](C)/C=C/C=C/CC/C=C/C=C/C=C/C=C/C(O[C@H]2O[C@H](C)[C@@H](O)[C@H](N)[C@@H]2O)CC2O[C@](O)(CC(O)C(O)CCC(O)CC(O)CC(O)CC(=O)O[C@H]1C)CC(O)C2C(=O)O (some centres unmarked) [Nystatin],equally affected,,,,Minimum Inhibitory Concentration ([1]; SC-URA (2% glucose)): 20 mg/mL; Minimum Inhibitory Concentration (Strain B; SC-URA (2% glucose)): 20 mg/mL; Minimum Inhibitory Concentration (Strain A; SC-URA (2% glucose)): 20 mg/mL
CC(=O)N1CCN(c2ccc(OCC3COC(Cn4ccnc4)(c4ccc(Cl)cc4Cl)O3)cc2)CC1 (centres unmarked) [ketoconazole],equally affected,,,,
